Results: patent publication US9802947B2, “3-oxo-tetrahydro-furo[3,2-b]pyrrol-4(5H)-yl) derivatives II” (GRÜNENTHAL GMBH, priority 2014, dated 2017)

What was measured:
Type in all cases: biochemical
[1] = target: recombinant human cathepsin S (hCatS) (Homo sapiens (Human), UniProt P25774); assay: CatS functional enzyme assay (fluorogenic substrate Z-VVR-AMC); details: Ki calculated by Cheng Prusoff equation; pH 6.5
Protocol: (§1) Reference and test compounds were assayed for inhibitory potency (IC50) against human cathepsins using the following assay setups:
(§2) Recombinant human cathepsins (CatS, CatK, CatL, CatB) were purchased from a Enzo Life Sciences. All assays were carried out in 96-well format using a buffer of 50 mM KH2PO4, 50 mM NaCl, 2 mM EDTA, 0.5 mM DTT and 1% Triton-X-100, pH 6.5 for Cathepsin S and a buffer of 50 mM NaOAc, 10 mM EDTA, 1 mM DTT and 0.01% Triton-X-100, pH 5.5 for CatK/L/B. For CatS, the enzyme (0.0007 mU/well) was incubated with fluorogeninc substrate (Z-VVR-AMC, 5 μM) at RT for 10 min. For CatK the enzyme (0.00175 mU/well) was incubated with fluorogeninc substrate (Z-FR-AMC, 40 μM) at RT for 10 min. For CatL, the enzyme (0.000874 mU/well) was incubated with fluorogeninc substrate (Z-VVR-AMC, 40 μM) at RT for 10 min. For CatB the enzyme was incubated with fluorogenic substrate (Z-VVR-AMC, 200 μM) at RT for 10 min. Flourogenic substrate turnover was detected using a microplate reader (Synergyl™ H4, BioTek). Ki values were calculated using the Cheng Prusoff equation (Cheng & Prosoff 1973).

[2] = target: recombinant human cathepsin K (hCatK) (Homo sapiens (Human), UniProt P43235); assay: CatK functional enzyme assay (fluorogenic substrate Z-FR-AMC); details: for Ki: Ki calculated by Cheng Prusoff equation, pH 5.5; for Selectivity Ki(hCatS)/Ki(hCatK): ratio of Ki hCatS to Ki hCatK
Protocol: as §1, §2

[3] = target: recombinant human cathepsin L (hCatL) (Homo sapiens (Human), UniProt P07711); assay: CatL functional enzyme assay (fluorogenic substrate Z-VVR-AMC); details: pH 5.5
Protocol: as §1, §2

recombinant human cathepsin L (hCatL), sequence (P07711 114-333): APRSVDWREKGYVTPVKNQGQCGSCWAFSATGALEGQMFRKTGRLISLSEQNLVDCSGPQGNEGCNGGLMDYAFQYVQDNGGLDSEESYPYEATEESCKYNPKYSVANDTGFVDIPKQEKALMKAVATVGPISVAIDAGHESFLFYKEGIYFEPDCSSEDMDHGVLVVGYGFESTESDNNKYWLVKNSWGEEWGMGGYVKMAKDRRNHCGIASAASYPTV
recombinant human cathepsin K (hCatK), sequence (P43235 115-329): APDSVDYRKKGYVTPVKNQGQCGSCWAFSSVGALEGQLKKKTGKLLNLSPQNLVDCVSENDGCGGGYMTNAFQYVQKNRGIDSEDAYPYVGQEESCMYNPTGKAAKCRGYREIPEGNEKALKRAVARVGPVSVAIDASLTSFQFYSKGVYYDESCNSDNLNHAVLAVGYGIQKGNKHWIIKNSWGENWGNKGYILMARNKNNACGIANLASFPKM
recombinant human cathepsin S (hCatS), sequence (P25774 115-331): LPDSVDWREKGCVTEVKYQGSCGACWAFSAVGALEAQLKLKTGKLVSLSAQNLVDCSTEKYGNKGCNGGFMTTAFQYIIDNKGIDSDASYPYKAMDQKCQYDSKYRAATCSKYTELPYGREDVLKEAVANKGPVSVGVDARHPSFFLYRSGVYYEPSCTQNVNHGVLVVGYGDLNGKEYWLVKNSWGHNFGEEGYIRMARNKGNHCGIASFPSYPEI

SMILES | Ki [1] | Ki [2] | Selectivity Ki(hCatS)/Ki(hCatK) [2] | inhibition at 31.6 µM [3]
O=C(N[C@H](C(=O)N1C[C@H](Cl)[C@H]2OCC(=O)[C@H]21)C1CCCC1)c1ccc(-c2ccncc2)s1 [Example 8, N—((S)-2-((3aS,6S,6aS)-6-chloro-3-oxotetrahydro-2H-furo[3,2-b]pyrrol-4(5H)-yl)-1-cyclopentyl-2-oxoethyl)-5-(pyridin-4-yl)thiophene-2-carboxamide] | 160 nM | 0.8 nM | 210 | 50%
O=C(N[C@H](C(=O)N1C[C@H](Cl)[C@H]2OCC(=O)[C@H]21)C1CCCC1)c1ncc(-c2cccnn2)s1 [Example 7, N—((S)-2-((3aS,6S,6aS)-6-chloro-3-oxotetrahydro-2H-furo[3,2-b]pyrrol-4(5H)-yl)-1-cyclopentyl-2-oxoethyl)-5-(pyridazin-3-yl)thiazole-2-carboxamide] | 263 nM | 5.3 nM | 50 | 62%
O=C(N[C@H](C(=O)N1C[C@H](Cl)[C@H]2OCC(=O)[C@H]21)C1CCCC1)c1ccc(-c2cnccn2)s1 [Example 5, N—((S)-2-((3aS,6S,6aS)-6-chloro-3-oxotetrahydro-2H-furo[3,2-b]pyrrol-4(5H)-yl)-1-cyclopentyl-2-oxoethyl)-5-(pyrazin-2-yl)thiophene-2-carboxamide] | 355 nM | 2.1 nM | 169 | 81%
O=C(N[C@H](C(=O)N1C[C@H](Cl)[C@H]2OCC(=O)[C@H]21)C1CCCC1)c1cccc(-c2cccnc2)c1 [Comparative Example C1, N—((S)-2-((3aS,6S,6aS)-6-chloro-3-oxotetrahydro-2H-furo[3,2-b]pyrrol-4(5H)-yl)-1-cyclopentyl-2-oxoethyl)-3-(pyridin-3-yl)benzamide, reference compound] | 82.4 nM | 14.8 nM | 6 | –
O=C(N[C@H](C(=O)N1C[C@H](Cl)[C@H]2OCC(=O)[C@H]21)C1CCCC1)c1ccc(-c2cncc(F)c2)s1 [Example 6, N—((S)-2-((3aS,6S,6aS)-6-chloro-3-oxotetrahydro-2H-furo[3,2-b]pyrrol-4(5H)-yl)-1-cyclopentyl-2-oxoethyl)-5-(5-fluoropyridin-3-yl)thiophene-2-carboxamide] | 174 nM | 3.1 nM | 55 | 42%
O=C(N[C@H](C(=O)N1C[C@H](Cl)[C@H]2OCC(=O)[C@H]21)C1CCCC1)c1ccc(-c2cncnc2)s1 [Example 3, N—((S)-2-((3aS,6S,6aS)-6-chloro-3-oxotetrahydro-2H-furo[3,2-b]pyrrol-4(5H)-yl)-1-cyclopentyl-2-oxoethyl)-5-(pyrimidin-5-yl)thiophene-2-carboxamide] | 110 nM | 2.1 nM | 53 | 73%
O=C(N[C@H](C(=O)N1C[C@H](Cl)[C@H]2OCC(=O)[C@H]21)C1CCCC1)c1ccc(-c2cccnc2)s1 [Example 2, N—((S)-2-((3aS,6S,6aS)-6-chloro-3-oxotetrahydro-2H-furo[3,2-b]pyrrol-4(5H)-yl)-1-cyclopentyl-2-oxoethyl)-5-(pyridin-3-yl)thiophene-2-carboxamide] | 308 nM | 0.7 nM | 453 | 45%
O=C(N[C@H](C(=O)N1C[C@H](Cl)[C@H]2OCC(=O)[C@H]21)C1CCCC1)c1ccc(-c2ccnnc2)s1 [Example 4, N—((S)-2-((3aS,6S,6aS)-6-chloro-3-oxotetrahydro-2H-furo[3,2-b]pyrrol-4(5H)-yl)-1-cyclopentyl-2-oxoethyl)-5-(pyridazin-4-yl)thiophene-2-carboxamide] | 39.8 nM | 1.8 nM | 22 | 73%
O=C(N[C@H](C(=O)N1C[C@H](Cl)[C@H]2OCC(=O)[C@H]21)C1CCCC1)c1ccc(-c2cccnn2)s1 [Example 1, N—((S)-2-((3aS,6S,6aS)-6-chloro-3-oxotetrahydro-2H-furo[3,2-b]pyrrol-4(5H)-yl)-1-cyclopentyl-2-oxoethyl)-5-(pyridazin-3-yl)thiophene-2-carboxamide] | 151 nM | 1.5 nM | 99 | 72%
